Test results: patent US9708247B2, “Modulators of the eIF2alpha pathway” (The Regents of the University of California, priority 2013, dated 2017)

What was measured:
[1] = test system: global translation; experiment: Metabolic labeling (35S-methionine incorporation) in HEK293T cells; type: cell-based, human; conditions: 100 nM thapsigargin plus 200 nM ISRIB
Experimental: HEK293T cells were seeded on 12 well plates, allowed to recover overnight and treated for the indicated times with the indicated compounds. The cells were subsequently switched to media lacking methionine and cysteine supplemented with the indicated compounds and 50 μCi of ^35S-methionine (Perkin Elmer) for 20 min. Cells were lysed by addition of SDS-PAGE loading buffer. Lysates were sonicated and equal amounts were loaded on SDS-PAGE gels (BioRad). The gel was dried and radioactive methionine incorporation was detected by exposure to a phosphor-screen and visualized with a Typhoon 9400 Variable Mode Imager (GE Healthcare).

[2] = test system: rabbit reticulocyte in vitro translation system; experiment: Rabbit reticulocyte in vitro translation assay (luciferase mRNA); type: biochemical; conditions: rabbit reticulocyte lysate
Experimental: FIG. 24. ISRIB enhances production of luciferase in a rabbit reticulocyte in vitro translation assay; luciferase mRNA was added to the lysates in the presence or absence of different concentrations of ISRIB; the amount of luciferase protein produced was quantitated by addition of One-Glo and the Relative luminescent units were normalized to no-addition control.

[3] = mouse, in vivo, ip, 5 mg/kg
Experimental: Intra-peritoneal (ip), and intra-venous (iv) routes of administration were performed on 6-7 wk old female CD-1 mice (Harlan Laboratories). Animals received a single, 5 mg/kg dose in groups of three mice/compound/route of administration. […] Blood (80 ul) was collected from the saphenous vein at intervals post-dosing (20 min, 1 h, 3 h, 8 h, 24 h) in EDTA containing collection tubes (Sarstadt CB300) and plasma was prepared for analysis. Compounds were detected by time-of-flight mass spectroscopy.

[4] = test system: auditory fear memory; experiment: Cannulation and auditory fear conditioning; type: in vivo, rat; conditions: rats, infused into amygdala, vs vehicle
Experimental: Male Sprague Dawley rats (275-350 g) were used for cannulation as described in Migues et al, 2010 (46). ISRIB (0.05 mg/ml, […]) was infused bilaterally into the amygdala immediately after auditory fear conditioning training. The infusion was performed with a microinjector (28 gauge) connected to a Hamilton syringe with plastic tubing at a rate of 0.4 μl/min. To allow for the solution containing ISRIB to diffuse from the tip of the cannula into the tissue, the microinjector stayed in the cannula for one additional minute. Training protocol for auditory fear conditioning consisted of a 2-min period of context A exploration, followed by one pairing of a tone (2800 Hz, 85 dB, 30 s) with a co-terminating foot shock (0.75 mA, 1 s). Rats were returned to their home cage 1 min after the shock. Test for auditory fear memory consisted of a 2 min acclimatizing period to the context B (pre-CS), followed by tone presentation (CS) (2800 Hz, 85 dB, 30 s). Freezing time was measured and percent of freezing was calculated. At the end of the experiment, cannula placement was checked by examining 50 μm brain sections stained with formal-thionin under a light microscope.

[5] = test system: eIF2α (S51D); experiment: Polysome gradient analysis in HEK293Trex cells expressing eIF2α(S51D); type: cell-based, human; conditions: 25 nM doxycycline 14 h, 200 nM ISRIB
Experimental: The coding sequences of wild type mouse eIF2α, phosphomimetic (S51D) mutant was amplified by PCR from a mammalian expression vector (kind gift of David Ron). BamHI and EcoRI recognition sites were engineered into the primers. In addition a Kozak consensus sequence and a N-terminal FLAG epitope tag were engineered in the forward primer. […]. Mouse Embryonic Fibroblasts (MEFs) or TREx-293 cells expressing eIF2α(S51D) were seeded on 150 mm plates and allowed to grow to 80% confluence. Cells were then induced with 25 nM doxycycline for 14 h and subsequently treated with the appropriate compounds for the indicated times. 100 μg/ml of cycloheximide was added to the cells for 1 min before lysis. Cells were washed twice with PBS supplemented with 100 μg/ml cycloheximide and subsequently lysed in 20 mM Tris pH 7.4, 200 mM NaCl, 15 mM MgCl, 1 mM DTT, 8% Glycerol, 100 μg/ml cycloheximide, 1% Triton X-100 and EDTA-free protease inhibitor tablets (Roche). Cells were scraped, collected, triturated with a 25^7/8 gauge needle, and the homogenate was centrifuged for 10 min at 10,000×g. The supernatant was loaded on a 10-50% sucrose gradient and sedimented in a SW40 rotor at 150,000×g for 2.4 h. The gradients were fractionated using a piston gradient fractionator (BioComp) and UV absorbance at 254 nm was monitored using a UV-Monitor (BioRad).

[6] = test system: spatial learning; experiment: Morris water maze (hidden platform, weak training); type: in vivo, mouse; conditions: p<0.05
Experimental: (§1) Eight to ten-week-old male C57BL/6J mice were used for behavioral experiments. Food and water were provided ad libitum, and mice were kept on a 12:12 h light/dark cycle (lights on at 08:00 h). All procedures complied with Canadian Council on Animal Care guidelines
Mice were trained in a water pool of 100 cm diameter with a hidden platform of 10 cm diameter. Mice were handled daily for 3 days before the experiment, and the training protocol consisted of 1 swimming trial per day. Each mouse swam until it found the hidden platform or 120 s, when it was gently guided to the platform and stayed there for 10 s before being returned to the cage. Immediately after the swimming trial the mice were injected intraperitoneally with ISRIB (0.25 mg/kg in saline, 1% DMSO). For the probe test, the platform was removed and each mouse was allowed to swim for 60 s, while its swimming trajectory was monitored with a video tracking system (HVS Image, Buckingham).

[7] = test system: contextual fear memory; experiment: Contextual fear conditioning; type: in vivo, mouse; conditions: vs vehicle
Experimental: as §1
Mice were handled for 3 days and thereafter injected daily intraperitoneally with ISRIB (0.25 mg/kg in saline, 1% DMSO) for 4 consecutive days. One hour after the last injection the mice were trained with the protocol, which consisted of a 2-min period of context exploration, followed by a single foot shock of 0.35 mA for 1 s. The mice were returned to their home cage 1 min after the shock. One and 24 h after training, the mice were tested for contextual fear memory by placing the animals in the conditioning context for a 4-min period. The incidence of freezing was scored in 5-s intervals as either “freezing” or “not freezing”. Percent of freezing indicates the number of intervals in which freezing was observed divided by total number of 5-s intervals. Statistical analyses were done by Student's t tests and one-way ANOVA followed by between-group comparisons using Tukey's posthoc test.

[8] = Toxicity in mice; type: in vivo

## O=C(COc1ccc(Cl)cc1)NC1CCC(NC(=O)COc2ccc(Cl)cc2)CC1 (stereo not shown) [ISRIB]
[1]
  effect on thapsigargin-induced drop in translation: abolished
[2]
  translation of exogenously added mRNA: enhances translation
[3]
  AUC: 3318 ng·h/mL
  CLt: 8.318 mL/h
  F %: 13.8%
  T½: 8.43 h
  Vd: 96.0261 mL
[4]; 3 h
  freezing to tone (CS), short-term memory: no difference
[4]; 24 h, p<0.05
  freezing to tone (CS), long-term memory: significant increase
[5]
  translational attenuation by eIF2α(S51D) expression: rescued translation
[6]; 24 h after last training session
  probe test: preference for target quadrant: significantly preferred the target quadrant
[6]; mice, 0.25 mg/kg ip daily after training, vehicle 68.1+/−20 s
  escape latency after 5 days of training: 16.4 ± 4.8 s
[6]; vs vehicle
  probe test: crossing of the platform location: increased crossing of the platform location
[7]; 1 h after training
  freezing, short-term contextual fear memory: No differences were observed
[7]; 24 h after training, 0.25 mg/kg ip for 4 days, p<0.05
  freezing, long-term contextual fear memory: increased freezing
[8]
  toxicity: no overt toxicity
